Results taken from patent US4863741A, “Tablet composition for drug combinations” (Abbott Laboratories, priority 1989, dated 1989).
Like-named read-outs stand apart in the source and are kept apart here.

Assay type: physicochemical
Settings: for t90 (time required for 10% destruction of erythromycin activity): 25° C.; for t50 (time required for 50% destruction of erythromycin activity): water
Experimental: To evaluate the feasibility of a single, non-enteric coated preparation containing erythromycin, the times required for 50% destruction of erythromycin activity t50) and 10% destruction of erythromycin activity t90) in aqueous solution at 25° C. were calculated as a function of pH from data reported in the literature.

For `CC[C@H]1OC(=O)[C@H](C)[C@@H](O[C@H]2C[C@@](C)(OC)[C@@H](O)[C@H](C)O2)[C@H](C)[C@@H](O[C@@H]2O[C@H](C)C[C@H](N(C)C)[C@H]2O)[C@](C)(O)C[C@@H](C)C(=O)[C@H](C)[C@@H](O)[C@]1(C)O` [erythromycin], the “t90 (time required for 10% destruction of erythromycin activity)” value (pH 3.0, aqueous solution) was 1.52 min, the “t90 (time required for 10% destruction of erythromycin activity)” value (pH 3.5, aqueous solution) was 528 min and the “t90 (time required for 10% destruction of erythromycin activity)” value (pH 4.0, aqueous solution) was 15.2 min. The “t90 (time required for 10% destruction of erythromycin activity)” value (pH 4.5, aqueous solution) was 52.8 min, the “t90 (time required for 10% destruction of erythromycin activity)” value (pH 5.0, aqueous solution) was 152 min and the “t90 (time required for 10% destruction of erythromycin activity)” value (pH 5.5, aqueous solution) was 528 min. The “t90 (time required for 10% destruction of erythromycin activity)” value (pH 6.0, aqueous solution) was 1530 min, the “t50 (time required for 50% destruction of erythromycin activity)” value (pH 3) was 0.167 h and the “t50 (time required for 50% destruction of erythromycin activity)” value (pH 3.5) was 0.578 h. The “t50 (time required for 50% destruction of erythromycin activity)” value (pH 4) was 1.67 h, the “t50 (time required for 50% destruction of erythromycin activity)” value (pH 4.5) was 5.79 h and the “t50 (time required for 50% destruction of erythromycin activity)” value (pH 5) was 16.7 h. The “t50 (time required for 50% destruction of erythromycin activity)” value (pH 5.5) was 57.8 h and the “t50 (time required for 50% destruction of erythromycin activity)” value (pH 6) was 167 h.
